Reference: US20240199555A1, “APPLICATIONS OF BIASED LIGANDS OF THE SEROTONIN 5-HT7 RECEPTOR FOR THE TREATMENT OF PAIN, MULTIPLE SCLEROSIS AND THE CONTROL OF THERMOREGULATION” (Centre National de la Recherche Scientifique, priority 2021, published 2024)

Key:
[1] = system: neuronal culture endogenously expressing 5-HT7R; experiment: pERK immunocytochemistry in mixed neuronal cultures; type: cell-based, mice; conditions: 10 μM; 7, 15, 30 min
Description: FIG. 4: Serodolin stimulation induces ERK phosphorylation in neuronal culture. […] These images are representative of two independent experiments. (B) pERK fluorescence intensity (AU) from immunofluorescence staining. Results represent mean±SEM of values obtained in two independent experiments (150-200 cells counted per group). ****P<0.0001 ***P<0.001 **P<0.01 *P<0.05. Statistical analysis was done using Tukey's multiple comparison test. Cerebral cortex from embryos (E15) mice were collected and mechanically dissociated in 1 mL of HBSS (-Ca^2+) (Sigma) with HEPES (H3375, Sigma). […] Neuronal differentiation was performed in 24-well plates, during 7 days with 3 medium changes per week. Stimulated neuronal culture were fixed with 4% paraformaldehyde in PBS during 10 min and then washed with PBS. Cells were saturated with 0.3% Triton X-100 in 1% BSA in TBS-FCS 10% for 1 hr, followed by three washes in TBS and incubated overnight with rabbit anti-pERK (9101 1/200, Cell Signaling) and mouse anti-MAP2 (119942 1/250, Sigma), anti-GFAP (G61711/250, Sigma) in TBS with 1% BSA, 10% FCS and 0.3% Triton X-100. […] Images were processed with the Zen software analyzed with Image J.

5-HT7(b) receptors = 5-HT7(b) receptors (Homo sapiens, UniProt P34969); experiment: BRET between 5-HT7-RLuc and Venus-mini G proteins (G protein recruitment); type: cell-based
Description: For −mGi, mG12 and mGq cells were also transfected with a receptor described as positively coupled to the G protein: Cells expressing the Adenosine 2 receptor A2R, the Histamine3 receptor H3R or the Ghrelin receptor GHSR were stimulated with adenosine, imetit or ghrelin respectively. Ligand mediated BRET changes are expressed as induced BRET changes which were generated by subtracting at each point the signal obtained on cells incubated with PBS (without ligand).
To evaluate Gαs, Gαq, Gαi recruitment, cells were transiently transfected with 5-HT7R(b) C—terminally fused with donor Rluc (5-HT7R-Rluc) and acceptor NESVenus. mGs, or NES-Venus-mGsq or NES-Venus-mGsi (kindly provided by Pr. N. A. Lambert, Augusta University, Augusta, USA) (Ayoub, M. A., Landomiel, F., Gallay, N., Jegot, G., Poupon, A., Crepieux, P., and Reiter, E. (2015) Assessing Gonadotropin Receptor Function by Resonance Energy Transfer-Based Assays. Front Endocrinol (Lausanne) 6, 130; Wan, Q., Okashah, N., Inoue, A., Nehme, R., Carpenter, B., Tate, C. G., and Lambert, N. A. (2018) Mini G protein probes for active G protein-coupled receptors (GPCRs) in live cells. […] Data were plotted and analysed using GraphPad Prism 4 software for Windows (GraphPad Software Inc, San Diego, CA, USA). […]

mice [2] = experiment: Tail immersion test (50° C.); type: in vivo
Description: (A) Experimental protocol summary used. (B) Mice were subcutaneously injected with two different doses of the 5-HT7 receptor agonist Serodolin, 1 mg/kg or 5 mg/kg and 10 min later their tail extremity was immersed in water heated to 50 degrees. […] The effect of injections (Serodolin or E55888) was evaluated at TO, 30 min and 60 min corresponding to 10, 40 and 70 min after compound injections. […] Their tail extremity was immersed in water heated to 50 degrees at TO (E) or 30 min later (F) corresponding to 10 and 40 min after agonist injections. […] Statistical analysis was done using Tukey's multiple comparison test.
Tail immersion test. Nociception was assessed with the tail immersion test, 10 min and 40 min after E55888 (5 mg/kg) or Serodolin (5 mg/kg) tail subcutaneous injections, in the water heated to 50° C. Vehicle (20% DMSO, 5% Tween 80 diluted in PBS solution) was used as a control group. These different groups were intraperitoneally injected (+) or not (−) with the 5-HT7R antagonist SB269960 (5 mg/kg) 10 min before the ligand injection. The tail withdrawal latency (s) was measured for each animal.

mice [3] = experiment: CFA-induced mechanical hypersensitivity, Von Frey filament test; type: in vivo; conditions: 5 mg/kg, s.c.
Description: Mechanical hypersensitivity was evaluated after CFA intraplantar injection by using the Von Frey test. […] Mechanical hypersensitivity was performed 24 hrs later (pre-treatment) CFA intraplantar injection into the left hind paw (ipsilateral paw). […] The ligand effects (E55888 or Serodolin) were evaluated 30 min and 24 hrs after in the ipsilateral paw. Data are means±SEM of values obtained in 2 independent experiments (n=8 to 10 per group). ****p<0.0001 ***p<0.001 **p<0.01 *p<0.05. Statistical analysis was done using Kruskal Wallis test.
Von Frey filament test. Before inducing peripheral inflammation, each animal was tested on the left hind paw with Von Frey Filament to determine its basal sensibility level. Then, peripheral inflammation was induced by intraplantar injection of Complete Freund's Adjuvant (CFA-10 μL) (F5881, Sigma) in the left hind paw (ipsilateral paw) and mechanical allodynia was measure (pre-treatment). Mice were divided into two groups, one with E55888 (5 mg/kg) and the other with Serodolin (5 mg/kg) subcutaneous injections in the ipsilateral paw. Both in absence (−) or in presence (+) of the 5-HT7R antagonist SB269960 (5 mg/kg), intraperitoneally, 20 min before the agonist injections (8-10 mice per group).
The inventors wanted to evaluate the effect of Serodolin on mechanical hypersensitivity in comparison with E-55888 after CFA injection.

mice [4] = experiment: MOG-induced experimental autoimmune encephalomyelitis (EAE) model; type: in vivo; conditions: 1 mg/kg, ip, day 8 to day 18
Description: FIG. 12: Evaluation of the therapeutic potential of Serodolin in EAE model. A/Serodolin has been administrated for 10 days from day 8 after immunization. After 18 days post-immunization, myelin staining and cell infiltration have been evaluated in 3 groups of mice (non-immunized NI, Vehicle-treated mice or Serodolin-treated mice. B/Immunolabeling of astrocytes (GFAP) and microglia (Iba1) performed in all groups. Quantifications used Image J software. **p<0.01 *p<0.05.
Autoimmune experimental encephalomyelitis (EAE) model. For EAE model, the pathology was induced by subcutaneous injection of an emulsion of MOG35-55 peptide in complete Freund's adjuvant as previously described (Terry, Ifergan, & Miller, 2016). The mice were scored blindly once a day starting at Day 7 postimmunization until Day 30 according to the following scale: 0.0=no obvious changes in motor function; 0.5=tip of tail is limp; 1.0=limp tail; 1.5=limp tail and hind leg inhibition; 2.0=limp tail and weakness of hind legs or signs of head tilting; 2.5=limp tail and dragging of hind legs or signs of head tilting; 3.0=limp tail and complete paralysis of hind legs or limb tail with paralysis of one front and one hind leg; 3.5=limp tail and complete paralysis of hind legs and animal unable to right itself when placed on its side; 4.0=limb tail, complete hind leg, and partial front leg paralysis with minimal moving and feeding. Drugs were administered at the onset of clinical symptoms (Day 8) until Day 18 after immunization. Serodolin (1 mg/kg, ip) or vehicle was daily administered. Mice were given Ketamine/Xylasine anaesthesia and then intracardiacally perfused first with PBS EDTA for 20-30 min and then with PFA (paraformaldehyde) 4% for 20-30 min. Spinal cords were removed and incubated first in PFA 4% for 48-72 h and then in sucrose 30% Organ was included in TFM (Tissue freezing media) and snap frozen using isopentane and dry ice. Spinal cord were cut on 14 μm thick sections using Leica CM3050 S Research Cryostat for immunohistochemistry experiments.
The inventors considered that Serodolin could have some benefit effects on some chronic inflammatory processes, like those observed in MS. Myelin oligodendrocyte glycoprotein (MOG)-induced murine experimental autoimmune encephalomyelitis (EAE) is a widely accepted model for studying the clinical and pathological features of multiple sclerosis. After MOG induction of EAE (9 animals/group), the effect of AIC-01 injection was tested for […] (1 mg/kg, ip from day 8 to day 18 after MOG induction). Each animal was assessed by a behavioural test based on motor functions, and an EAE score was obtained. […] Histopathological characteristics performed after MOG-induction allowed to decipher Serodolin effect at molecular and cellular levels. […]

mouse = experiment: Effect on body temperature; type: in vivo; conditions: intravenous
Description: FIG. 13: Evaluation of the effect of Serodolin on body temperature.
FIG. 17: Evaluation of the effect of MOA51 on body temperature. Results expressed in ° C.
The time course of the effect of Serodolin on the body temperature has been evaluated in the mouse following intravenous administration.

Sequence of 5-HT7(b) receptors (P34969 whole entry, looked up): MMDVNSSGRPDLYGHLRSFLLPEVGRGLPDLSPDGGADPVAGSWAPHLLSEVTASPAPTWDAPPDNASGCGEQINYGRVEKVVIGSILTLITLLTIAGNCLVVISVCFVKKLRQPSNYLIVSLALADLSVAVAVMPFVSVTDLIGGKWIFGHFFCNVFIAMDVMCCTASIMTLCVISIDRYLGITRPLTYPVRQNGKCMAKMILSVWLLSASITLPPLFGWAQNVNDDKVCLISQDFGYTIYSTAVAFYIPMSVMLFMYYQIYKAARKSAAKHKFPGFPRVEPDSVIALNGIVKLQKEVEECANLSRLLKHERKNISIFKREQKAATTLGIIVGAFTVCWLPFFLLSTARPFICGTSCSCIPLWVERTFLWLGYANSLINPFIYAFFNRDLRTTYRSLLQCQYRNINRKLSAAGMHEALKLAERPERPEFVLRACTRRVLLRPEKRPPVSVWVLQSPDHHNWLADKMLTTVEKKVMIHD

SMILES: O=c1[nH]c2ccccc2n1CN1CCN(c2ccc(F)cc2)CC1 [Serodolin]
- ERK phosphorylation in neuronal culture [1]: ERK phosphorylation also occurs in neuronal culture
- Gαs recruitment (5-HT7(b) receptors; mGs BRET): behaved as inverse for Gαs recruitment
- Gαi, Ga12 or Gαq recruitment (5-HT7(b) receptors; mGsi, mG12, mGsq BRET): neither classical (5-CT, SB 269970) nor biased 5-HT7R ligands (Serodolin) were able to induce the Gαi, Ga12 or Gαq recruitment
- duration of effect (mice [2]; 5 mg/kg): > 70 min
- tail-immersion latencies (mice [2]; 1 and 5 mg/kg, s.c.): significant dose-dependent increase in the tail-immersion latencies
- anti-nociceptive effect in 5-HT7R KO mice (mice [2]; 5-HT7R KO mice, subcutaneous): did not exert any anti-nociceptive effect
- onset of effect post administration (mice [2]; s.c.): ≤ 10 min
- CFA-induced mechanical hypersensitivity, 30 minutes after administration (mice [3]; 30 minutes): Significantly decreased paw withdrawals thresholds (anti-allodynia)
- anti-allodynic effect 24 later (mice [3]; 24 hrs): still significant
- EAE score / onset of symptoms (mice [4]): tended to show a delay in the onset of symptoms
- astrocytes and microglia staining (mice [4]): significantly decreased
- cell infiltration (DAPI) (mice [4]): reduces cell infiltration
- myelin staining, increase over vehicle-treated animals (mice [4]): 65%
- decrease in body temperature, Emax (mouse; 1 mg/kg, at 30 min): −2.9 °C
- decrease in body temperature, Emax (mouse; 3 mg/kg, at 30 min): −3.6 °C
- decrease in body temperature, Emax (mouse; 10 mg/kg, at 60 min): −7.9 °C
